Assay results as given in patent US4933346A, “Diarylalkyl piperazine derivatives, a process for their preparation, their use, and medicaments containing them” (Hoechst Aktiengesellschaft, priority 1987, dated 1990).
Where a name gives a salt, the structure may show the parent alone.

Target: ^3 H-nitrendipine binding, membrane preparation obtained from the cortex of the rat brain
Test: displacement of tritium-labeled nitrendipine in a membrane preparation from the cortex of the rat brain
Conditions: ^3 H-nitrendipine 0.1 nM, 25° C., 60 min, pH 7.4; unspecific binding with 1 μM nifedipine
Description: We carried out this test in a membrane preparation obtained from the cortex of the rat brain and washed several times, the method which we used being essentially that of R. J. Gould et al. (Proc. Natl. Acad. Sci. USA 79, 3656 [1982]). […] The membrane fractions were removed by vacuum filtration through Whatman GF/F fiber glass filters, and the radioactivity was measured in a liquid scintillation counter. We determined the unspecific ^3 H-nitrendipine binding in the presence of 1 μM nifedipine. The IC50 is determined as characteristic quantity, i.e. the concentration of test substance which is able to displace 50% of the radiolabeled nitrendipine.

| SMILES | IC50 [nM] |
| --- | --- |
| Fc1ccc(C(CCCN2CCN(CCSc3ccc(Cl)cc3)CC2)c2ccc(F)cc2)cc1 [Example 1, 1-[4,4-bis(4-fluorophenyl)butyl]-4-[2-(4-chlorophenylthio)ethyl]piperazine] | 4 |
| Cc1cccc(C)c1NC(=O)CN1CCN(CCCC(c2ccc(F)cc2)c2ccc(F)cc2)CC1 [Lidoflazine, lidoflazine, reference compound] | 430 |
| Fc1ccc(SCCN2CCN(CCCC(c3ccc(F)cc3)c3ccc(F)cc3)CC2)cc1 [Example 3, 1-[4,4-bis(4-fluorophenyl)butyl]-4-[2-(4-fluorophenylthio)ethyl]piperazine dihydrochloride] | 7 |
| Fc1ccc(C(CCCN2CCN(CCSc3cccc(Cl)c3)CC2)c2ccc(F)cc2)cc1 [Example 5, 1-[4,4-bis(4-fluorophenyl)butyl]-4-[2-(3-chlorophenylthio)ethyl]piperazine dihydrochloride] | 1.2 |
| Cc1ccc(SCCN2CCN(CCCC(c3ccc(F)cc3)c3ccc(F)cc3)CC2)cc1 [Example 2, 1-[4,4-bis(4-fluorophenyl)butyl]-4-[2-(4-methylphenylthio)ethyl]piperazine dihydrochloride] | 20 |
| O=[N+]([O-])c1ccc(SCCN2CCN(CCCC(c3ccc(F)cc3)c3ccc(F)cc3)CC2)cc1 [Example 4, 1-[4,4-bis(4-fluorophenyl)butyl]-4-[2-(4-nitrophenylthio)ethyl]piperazine dihydrochloride] | 22 |
